In patent publication US8722849B2, “Polypeptides” (Novo Nordisk A/S, priority 2011, dated 2014):
Values after ≈ are worked out from the molar mass of the structure shown. Where two headings read alike, the source gives them in different places. Starred links: 1 amine or outer side, 2 acyl side, 3 side chain; linkers in the order of their positions; H or OH if unused. Positions of bridges follow the written chain, without caps; N, C: chain ends. Residues, ends and D or L forms follow the SMILES beside them. Groups on a side chain read outwards from the residue. *: point of attachment. C20 diacid = O=C(O)CCCCCCCCCCCCCCCCCCC(=O)*; γGlu = O=C(O)[C@H](CCC(=O)[*:2])N[*:1]; AEEA = NCCOCCOCC(=O)O

Assay: Assay (IV) determination of solubility
Assay type: physicochemical
Description: ASSAY (IV)—Determination of Solubility
The polypeptide was dissolved in water at ˜500 nmol/ml and mixed 1:1 with a series of buffers (100 mM glycylglycine pH 3.0, 100 mM glycylglycine pH 4.0, 100 mM glycylglycine pH 5.0, 100 mM bistrispropane pH 6.0, 100 mM bistrispropane pH 6.5, 100 mM bistrispropane pH 7.0, 100 mM bistrispropane pH 7.5, 100 mM bistrispropane pH 8.0). After 18 hours at room temperature the samples were centrifuged and the polypeptide concentration determined by HPLC.

[1] = pH 3, pH 3.0, read-out: Solubility pH 3.0
[2] = pH 4, pH 4.0, 18 hours at room temperature, Table 2, read-out: Solubility pH 4.0
[3] = pH 4, pH 4.0, read-out: Solubility pH 4.0
[4] = pH 5, pH 5.0, read-out: Solubility pH 5.0
[5] = pH 6, pH 6.0, read-out: Solubility pH 6.0
[6] = pH 6.5, pH 6.5, read-out: Solubility pH 6.5
[7] = pH 7, pH 7.0, read-out: Solubility pH 7.0
[8] = pH 7.5, pH 7.5, read-out: Solubility pH 7.5
[9] = pH 8, pH 8.0, read-out: Solubility pH 8.0

| Compound | solubility [1] [µM] | solubility [2] [µM] | solubility [3] [µM] | solubility [4] [µM] | solubility [5] [µM] | solubility [6] [µM] | solubility (pH 7, pH 7.0, 18 hours at room temperature, Table 3, read-out: Solubility pH 7.0) [µM] | solubility [7] [µM] | solubility [8] [µM] | solubility [9] [µM] |
| --- | --- | --- | --- | --- | --- | --- | --- | --- | --- | --- |
| CC[C@H](C)[C@H](NC(=O)[C@@H]1CCCN1C(=O)CNC(=O)[C@H](Cc1ccccc1)NC(=O)[C@H](CC(N)=O)NC(=O)[C@H](CCCCNC(=O)COCCOCCNC(=O)COCCOCCNC(=O)CC[C@H](NC(=O)CCCCCCCCCCCCCCCCCCC(=O)O)C(=O)O)NC(=O)[C@H](CO)NC(=O)[C@H](CO)NC(=O)[C@H](Cc1c[nH]cn1)NC(=O)[C@@H](NC(=O)[C@H](CC(C)C)NC(=O)[C@H](Cc1ccccc1)NC(=O)[C@H](CCC(=O)O)NC(=O)[C@H](C)NC(=O)[C@H](CC(C)C)NC(=O)[C@H](CCCNC(=N)N)NC(=O)[C@H](CCC(N)=O)NC(=O)[C@@H](NC(=O)[C@H](C)NC(=O)[C@@H]1CSSC[C@H](NC(=O)[C@@H](N)CCCCN)C(=O)N[C@@H](CC(N)=O)C(=O)N[C@@H]([C@@H](C)O)C(=O)N[C@@H](C)C(=O)N[C@@H]([C@@H](C)O)C(=O)N1)[C@@H](C)O)C(C)C)C(=O)N[C@@H](CC(C)C)C(=O)N1CCC[C@H]1C(=O)N1CCC[C@H]1C(=O)N[C@H](C(=O)N[C@@H](CC(N)=O)C(=O)N[C@H](C(=O)NCC(=O)N[C@@H](CO)C(=O)N[C@@H](Cc1c[nH]cn1)C(=O)N[C@H](C(=O)N[C@@H](Cc1ccc(O)cc1)C(N)=O)[C@@H](C)O)C(C)C)[C@@H](C)O [Example 132, N-epsilon21-[2-(2-{2-[2-(2-{2-[(S)-4-Carboxy-4-(19-carboxyheptadecanoylamino)butyrylamino]ethoxy}ethoxy)acetylamino]ethoxy}ethoxy)acetyl]-[Glu14,Lys21,His35]-pramlintide] (H-KCNTATCATQRLAEFLVHSSK([AEEA-AEEA-γGlu-C20 diacid])NFGPILPPTNVGSHTY-NH2; disulfide 2-7) | > 200 | > 200 | > 200 | > 200 | > 200 | 198 (≈ 940 µg/mL) | 142 (≈ 674 µg/mL) | 142 (≈ 674 µg/mL) | 169 (≈ 802 µg/mL) | > 200 |
| CC[C@H](C)[C@H](NC(=O)[C@H](CCCCNC(=O)COCCOCCNC(=O)COCCOCCNC(=O)CC[C@H](NC(=O)CCCCCCCCCCCCCCCCCCC(=O)O)C(=O)O)NC(=O)CNC(=O)[C@H](Cc1ccccc1)NC(=O)[C@H](CC(N)=O)NC(=O)[C@H](CO)NC(=O)[C@H](CO)NC(=O)[C@H](CO)NC(=O)[C@H](Cc1c[nH]cn1)NC(=O)[C@H](Cc1c[nH]cn1)NC(=O)[C@H](CC(C)C)NC(=O)[C@H](Cc1ccccc1)NC(=O)[C@H](CCC(=O)O)NC(=O)[C@H](C)NC(=O)[C@H](CC(C)C)NC(=O)[C@H](CCCNC(=N)N)NC(=O)[C@H](CCC(N)=O)NC(=O)[C@@H](NC(=O)[C@H](C)NC(=O)[C@@H]1CSSC[C@H](NC(=O)[C@@H](N)CCCCN)C(=O)N[C@@H](CC(N)=O)C(=O)N[C@@H]([C@@H](C)O)C(=O)N[C@@H](C)C(=O)N[C@@H]([C@@H](C)O)C(=O)N1)[C@@H](C)O)C(=O)N[C@@H](CC(C)C)C(=O)N[C@@H](CO)C(=O)N[C@@H](CO)C(=O)N[C@H](C(=O)N[C@@H](CC(N)=O)C(=O)N[C@H](C(=O)NCC(=O)N[C@@H](CO)C(=O)N[C@@H](Cc1c[nH]cn1)C(=O)N[C@H](C(=O)N[C@@H](Cc1ccc(O)cc1)C(N)=O)[C@@H](C)O)C(C)C)[C@@H](C)O [Example 133, N-epsilon25-[2-(2-{2-[2-(2-{2-[(S)-4-Carboxy-4-(19-carboxyheptadecanoylamino)butyrylamino]ethoxy}ethoxy)acetylamino]ethoxy}ethoxy)acetyl]-[Glu14,His17,Ser21,Lys25,Ser28,Ser29.His35]-pramlintide] (H-KCNTATCATQRLAEFLHHSSSNFGK([AEEA-AEEA-γGlu-C20 diacid])ILSSTNVGSHTY-NH2; disulfide 2-7) | > 200 | > 200 | > 200 | 107 (≈ 509 µg/mL) | 1 (≈ 4.75 µg/mL) | 1 (≈ 4.75 µg/mL) |  | 1 (≈ 4.75 µg/mL) | 1 (≈ 4.75 µg/mL) |  |
| CC[C@H](C)[C@H](NC(=O)[C@H](CCCCNC(=O)COCCOCCNC(=O)COCCOCCNC(=O)CC[C@H](NC(=O)CCCCCCCCCCCCCCCCCCC(=O)O)C(=O)O)NC(=O)CNC(=O)[C@H](Cc1ccccc1)NC(=O)[C@H](CC(N)=O)NC(=O)[C@H](Cc1c[nH]cn1)NC(=O)[C@H](CO)NC(=O)[C@H](CO)NC(=O)[C@H](Cc1c[nH]cn1)NC(=O)[C@H](Cc1c[nH]cn1)NC(=O)[C@H](CC(C)C)NC(=O)[C@H](Cc1ccccc1)NC(=O)[C@H](CC(N)=O)NC(=O)[C@H](C)NC(=O)[C@H](CC(C)C)NC(=O)[C@H](CCCNC(=N)N)NC(=O)[C@H](CCC(N)=O)NC(=O)[C@@H](NC(=O)[C@H](C)NC(=O)[C@@H]1CSSC[C@H](NC(=O)[C@@H](N)CCCCN)C(=O)N[C@@H](CC(N)=O)C(=O)N[C@@H]([C@@H](C)O)C(=O)N[C@@H](C)C(=O)N[C@@H]([C@@H](C)O)C(=O)N1)[C@@H](C)O)C(=O)N[C@@H](CC(C)C)C(=O)N[C@@H](CO)C(=O)N[C@@H](CO)C(=O)N[C@H](C(=O)N[C@@H](CC(N)=O)C(=O)N[C@H](C(=O)NCC(=O)N[C@@H](CO)C(=O)N[C@@H](Cc1c[nH]cn1)C(=O)N[C@H](C(=O)N[C@@H](Cc1ccc(O)cc1)C(N)=O)[C@@H](C)O)C(C)C)[C@@H](C)O [Example 134, N-epsilon25-[2-(2-{2-[2-(2-{2-[(S)-4-Carboxy-4-(19-carboxyheptadecanoylamino)butyrylamino]ethoxy}ethoxy)acetylamino]ethoxy}ethoxy)acetyl]-[His17,His21,Lys25,Ser28,Ser29.His35]-pramlintide] (H-KCNTATCATQRLANFLHHSSHNFGK([AEEA-AEEA-γGlu-C20 diacid])ILSSTNVGSHTY-NH2; disulfide 2-7) | > 200 |  | > 200 | > 200 | 3 (≈ 14.4 µg/mL) | 1 (≈ 4.79 µg/mL) |  | 2 (≈ 9.58 µg/mL) | 3 (≈ 14.4 µg/mL) | 2 (≈ 9.58 µg/mL) |

Second part, the molecule after the results:

| solubility [1] [µM] | solubility [2] [µM] | solubility [3] [µM] | solubility [4] [µM] | solubility [5] [µM] | solubility [6] [µM] | solubility (pH 7, pH 7.0, 18 hours at room temperature, Table 3, read-out: Solubility pH 7.0) [µM] | solubility [7] [µM] | solubility [8] [µM] | solubility [9] [µM] | Compound |
| --- | --- | --- | --- | --- | --- | --- | --- | --- | --- | --- |
| > 200 | > 200 | > 200 | 104 (≈ 496 µg/mL) | 2 (≈ 9.53 µg/mL) | 1 (≈ 4.77 µg/mL) |  | 1 (≈ 4.77 µg/mL) | 1 (≈ 4.77 µg/mL) |  | CC[C@H](C)[C@H](NC(=O)[C@H](CCCCNC(=O)COCCOCCNC(=O)COCCOCCNC(=O)CC[C@H](NC(=O)CCCCCCCCCCCCCCCCCCC(=O)O)C(=O)O)NC(=O)CNC(=O)[C@H](Cc1ccccc1)NC(=O)[C@H](CC(N)=O)NC(=O)[C@H](CC(N)=O)NC(=O)[C@H](CO)NC(=O)[C@H](CO)NC(=O)[C@H](Cc1c[nH]cn1)NC(=O)[C@H](Cc1c[nH]cn1)NC(=O)[C@H](CC(C)C)NC(=O)[C@H](Cc1ccccc1)NC(=O)[C@H](CC(N)=O)NC(=O)[C@H](C)NC(=O)[C@H](CC(C)C)NC(=O)[C@H](CCCNC(=N)N)NC(=O)[C@H](CCC(N)=O)NC(=O)[C@@H](NC(=O)[C@H](C)NC(=O)[C@@H]1CSSC[C@H](NC(=O)[C@@H](N)CCCCN)C(=O)N[C@@H](CC(N)=O)C(=O)N[C@@H]([C@@H](C)O)C(=O)N[C@@H](C)C(=O)N[C@@H]([C@@H](C)O)C(=O)N1)[C@@H](C)O)C(=O)N[C@@H](CC(C)C)C(=O)N[C@@H](CO)C(=O)N[C@@H](CO)C(=O)N[C@H](C(=O)N[C@@H](CC(N)=O)C(=O)N[C@H](C(=O)NCC(=O)N[C@@H](CO)C(=O)N[C@@H](Cc1c[nH]cn1)C(=O)N[C@H](C(=O)N[C@@H](Cc1ccc(O)cc1)C(N)=O)[C@@H](C)O)C(C)C)[C@@H](C)O [Example 140, N-epsilon25-[2-(2-{2-[2-(2-{2-[(S)-4-Carboxy-4-(19-carboxyheptadecanoylamino)butyrylamino]ethoxy}ethoxy)acetylamino]ethoxy}ethoxy)acetyl]-[His17,Lys25,Ser28,Ser29,His35]-pramlintide] (H-KCNTATCATQRLANFLHHSSNNFGK([AEEA-AEEA-γGlu-C20 diacid])ILSSTNVGSHTY-NH2; disulfide 2-7) |
| > 200 |  | > 200 | > 200 | 84 (≈ 400 µg/mL) | 3 (≈ 14.3 µg/mL) |  | 2 (≈ 9.52 µg/mL) | 1 (≈ 4.76 µg/mL) |  | CC[C@H](C)[C@H](NC(=O)[C@@H]1CCCN1C(=O)CNC(=O)[C@H](Cc1ccccc1)NC(=O)[C@H](CC(N)=O)NC(=O)[C@H](CCCCNC(=O)COCCOCCNC(=O)COCCOCCNC(=O)CC[C@H](NC(=O)CCCCCCCCCCCCCCCCCCC(=O)O)C(=O)O)NC(=O)[C@H](CO)NC(=O)[C@H](CO)NC(=O)[C@H](Cc1c[nH]cn1)NC(=O)[C@H](Cc1c[nH]cn1)NC(=O)[C@H](CC(C)C)NC(=O)[C@H](Cc1ccccc1)NC(=O)[C@H](CC(N)=O)NC(=O)[C@H](C)NC(=O)[C@H](CC(C)C)NC(=O)[C@H](CCCNC(=N)N)NC(=O)[C@H](CCC(N)=O)NC(=O)[C@@H](NC(=O)[C@H](C)NC(=O)[C@@H]1CSSC[C@H](NC(=O)[C@@H](N)CCCCN)C(=O)N[C@@H](CC(N)=O)C(=O)N[C@@H]([C@@H](C)O)C(=O)N[C@@H](C)C(=O)N[C@@H]([C@@H](C)O)C(=O)N1)[C@@H](C)O)C(=O)N[C@@H](CC(C)C)C(=O)N[C@@H](CO)C(=O)N1CCC[C@H]1C(=O)N[C@H](C(=O)N[C@@H](CC(N)=O)C(=O)N[C@H](C(=O)NCC(=O)N[C@@H](CO)C(=O)N[C@@H](Cc1c[nH]cn1)C(=O)N[C@H](C(=O)N[C@@H](Cc1ccc(O)cc1)C(N)=O)[C@@H](C)O)C(C)C)[C@@H](C)O [Example 141, N-epsilon21-[2-(2-{2-[2-(2-{2-[(S)-4-Carboxy-4-(19-carboxyheptadecanoylamino)butyrylamino]ethoxy}ethoxy)acetylamino]ethoxy}ethoxy)acetyl]-[His17,Lys21,Ser28,His35]-pramlintide] (H-KCNTATCATQRLANFLHHSSK([AEEA-AEEA-γGlu-C20 diacid])NFGPILSPTNVGSHTY-NH2; disulfide 2-7) |
